Consider 5 compounds from US20050222266A1, “2-indanylamino derivatives for the therapy of chronic pain” (priority 2002, published 2005).

For one test, the system named is rat MES model. The conditions noted are these: cited from earlier work.
Test [1] deals with formalin-induced licking and flinching. The test is described as follows: mouse formalin test, 9 day treatment (tolerance). The class given is in vivo, mice. As to the method: The mice paw formalin test was performed as described by Wheeler-Aceto et al. (Psychopharmacology 104:35-44, 1991). Briefly, the day before the formalin injection, mice were placed individually into clear plastic cylinders for 30 minutes of adaptation. The day of testing 20 μl of 1% formalin was injected into the plantar surface of the left hind paw and the animals were again placed into the plastic cylinder for the behavioural observation. The amount of time, in seconds, the animals spent licking and flinching (L/F) the injected paw for the first 5 min (early phase), and then from 10 to 40 min(late phase) after formalin injection, was used as measurement of intensity of pain. CHF 3381 10-100 mg/kg i.p. and 25-200 mg/kg p.o. or the corresponding vehicles, were administered 15 and 30 min before formalin injection, respectively.
Moreover, the formalin test was used to examine whether tolerance develops with respect to the antihyperalgesic effect of CHF 3381 after chronic treatment in comparison with the standard opioid morphine. Briefly, mice were divided randomly into five groups (12 mice per group) and administered once daily for 8 days as follows: three groups with saline i.p., one group with CHF 3381 60 mg/kg i.p. and one group with morphine 20 mg/kg i.p. On ninth day these groups were treated in following way: one saline pre-treated group was treated with saline i.p. (g1); two saline pre-treated group were treated with CHF 3381 30 mg/kg i.p. (g2) and with morphine 6 mg/kg i.p. (g3), respectively; the group pre-treated with CHF 3381 60 mg/kg was treated with CHF 3381 30 mg/kg i.p. (g4) and the group pre-treated with morphine 20 mg/kg was treated with morphine 6 mg/kg i.p.(g5), a dose that was previously shown to be active in the formalin test. CHF 3381 and morphine were administered 15 and 30 min before formalin injection, respectively.

Test [2] deals with mechanical hyperalgesia in streptozotocin (STZ)-induced diabetic neuropathy. The test is described as follows: streptozotocin-induced diabetic neuropathy, paw pressure test. The class given is in vivo, rat. The conditions noted are these: 100 mg/kg p.o. As to the method:
The objective of this study was to assess the antinociceptive effects of CHF 3381 (25, 50 and 100 mg/kg p.o.) and gabapentin (100 mg/kg p.o) on mechanical hyperalgesia in streptozotocin (STZ)-induced diabetic neuropathy in rats. Diabetes was induced by intraperitoneal injection of STZ (75 mg/kg), and 23 days later its presence was confirmed by measuring of tail vein blood glucose levels and only rats with […] were included in the study.
After 25 days, distilled water, CHF3381 and gabapentin were administered 60 minutes before pain measurement. The nociceptive threshold was evaluated in all groups using a mechanical nociceptive stimulation (paw pressure test).
An increasing pressure (grams of contact pressure) was applied onto the both hind paws of the animal until a nociceptive reaction (vocalisation or paw withdrawal) was determined. The results, expressed as the percentage variation of the nociceptive threshold calculated respect the mean value of the vehicle-treated diabetic group, are reported in Table 2.

[3] abbreviates: G3: 6 mg/kg i.p. on ninth day after 8 days saline.
[4] abbreviates: G5: 6 mg/kg i.p. on ninth day after 8 days morphine 20 mg/kg i.p.

Consider `CN(CC(N)=O)C1Cc2ccccc2C1.Cl` [N-2(indanyl)-N-methyl glicinamide hydrochloride], for which, in the test on rat MES model, the anti-convulsivant activity result is recorded as “anti-convulsivant activity”.
Turning to `Cl.NC(=O)C(CO)NC1Cc2ccccc2C1` (stereo not shown) [3-hydroxy-2-(2-indanylamino)-propanamide hydrochloride], the anti-convulsivant activity result in the test with rat MES model is given as “anti-convulsivant activity”.
With `CN1CC[C@]23c4c5ccc(O)c4O[C@H]2[C@@H](O)C=C[C@H]3[C@H]1C5` [Morphine, morphine, reference compound], in test [1] (setting [3]), the Early phase was determined as 52 ± 15 s and the Late phase was found to be 91 ± 21 s. In test [1] (setting [4]), this compound returned an Early phase of 95 ± 9 s and a Late phase of 175 ± 22 s. Besides, the “antihyperalgesic action after chronic treatment (tolerance)” value in test [1] (once daily for 8 days, test on ninth day) is on record as “failed to show such actions”.
Take `CC(NC1Cc2ccccc2C1)C(N)=O.Cl` (stereo not shown) [2-(2-indanylamino)-propanamide hydrochloride]: the anti-convulsivant activity entry in the test on rat MES model is reported as “anti-convulsivant activity”.
Compound `NCC1(CC(=O)O)CCCCC1` [Gabapentin, gabapentin, reference compound] had a Nociceptive threshold in test [2] (60 minutes before measurement) of 229.2 ± 32.3 g. The “% variation of the nociceptive threshold” value in test [2] (vs vehicle-treated diabetic group) came out at 68%.
